In patent publication US4591600A, “3-hydroxyflavones: their preparation and therapeutic application” (Societe Cortial, S.A., priority 1983, dated 1986):
pIC50: −log10 of the molar value.

Assays:
[1] = molecular target: T1, aldose reductase (Bos taurus, UniProt P16116); test: Inhibition of aldose reductase in vitro; format: biochemical; conditions: enzyme from beef crystalline lenses; glyceraldehyde reduction, NADPH spectrophotometry
T1 construct: The enzyme was extracted from beef crystalline lenses; from tissue; host or cells: beef crystalline lenses
Description: The enzyme was extracted from beef crystalline lenses by the method described by S. Hayman and J. H. Kinoshita (J. Biol. Chem. 1965, 240, (2), 877). The percentage of inhibition of the capacity of the enzyme to reduce glyceraldehyde to glycerol under the effect of the product to be tested was determined by spectrophotometric determination of the amount of NADPH reacting according to the method described by Hayman and Kinoshita.

[2] = system: neuropathy induced by streptozotocin; test: Streptozotocin neuropathy in rats (sciatic nerve sorbitol and inositol, glycemia); format: in vivo; conditions: for inositol level in sciatic nerves / sorbitol level in sciatic nerves: streptozotocin 100 mg/kg i.p.; for inositol level in sciatic nerves: 3rd day, controls 2.174±0.481; for sorbitol level in sciatic nerves: controls 0.819±0.215; for glycemia: streptozotocin, D 3, controls 4.72±0.60
Description: 4 batches of 10 rats weighing about 200 g were treated from D--2 to D+3 with a gummy julep of the product to be tested. At D 0 the animals received an i.p. injection of 100 mg/kg of streptozotocin dissolved in a citrate buffer. The glycemia was determined 24 hours and 3 days after injection of the diabetogenic agent. The rats were sacrificed on the 3rd day after streptozotocin injection and the sciatic nerves were removed to determine the sorbitol and inositol levels. Tested under these condition, COR 1988 caused a reduction of the sorbitol level that went from 0.819±0.215 mg/kg in the controls to 0.608±0.049 mg/kg in animals treated with 50 mg/kg and to 0.482±0.091 mg/kg in animals treated with 100 mg/kg. Also the inositol level went from 2.174±0.481 mg/kg in the controls to 1.593±0.109 mg/kg in the animals treated wtih 25 mg/kg, to 1.430+0.104 mg/kg in the animals treated with 50 mg/kg and to 1.402±0.130 mg/kg in animals treated with 100 mg/kg. The sorbitol and inositol levels after treatment were compared with the control levels by the U test of Mann and Whitney (D. Schwartz, Methodes statistique a 1' usage des medecins et biologists [Statistical method for use by physicians and biologistes], Ed. Flammarion, Paris 1963). The results obtained are significant with p<1%. Glycemia of the control animals was 4.72±0.60g/l on D 3. It went to 3.93±0.82 g/l in animals treated with […] of COR 1988 and to 3.61±0.73 g/l in animals treated with 100 mg/kg. The reduction of glycemia are significant.

[3] = system: mice; test: Toxicity in mice
Description: (§1) The toxicity of the products of this invention was determined in mice.

[4] = system: hypercholesterolemic mice; test: Hypolipidemic activity in hypercholesterolemic mice; format: in vivo; conditions: 400 mg/kg orally, twice at 20 hour intervals
Description: The products, object of this invention, are useful as hypolipidemic agents. Thus, COR 1983 administered twice in a dose of 400 mg/kg orally at 20 hour intervals in hypercholesterolemic mice caused 24% reduction in cholesterolemia.

[5] = Toxicity in mice; conditions: mouse, in vivo, ip, 200 mg/kg
Description: as §1

## Cc1ccc(S(=O)(=O)Oc2c(-c3ccc(O)c(O)c3)oc3cc(O)cc(O)c3c2=O)cc1 [COR 1990, 3-Paratoluenesulfonyloxy-5,7,3',4'-tetrahydroxyflavone]
[1]
  pIC50: 5.50

## CCOc1c(-c2ccc(O)c(O)c2)oc2cc(O)ccc2c1=O [COR 1987, 3-Ethoxy-7,3',4'trihydroxyflavone]
[1]
  pIC50: 6.30

## CS(=O)(=O)Oc1c(-c2ccc(O)c(O)c2)oc2cc(O)cc(O)c2c1=O [COR 1988, 3-methanesulfonyloxy-3',4',5,7-tetrahydroxyflavone]
[2]; treated with 25 mg/kg
  inositol level in sciatic nerves: 1.593 ± 0.109 mg/kg
[2]; treated with 50 mg/kg D-2 to D+3, 3rd day
  sorbitol level in sciatic nerves: 0.608 ± 0.049 mg/kg
[2]; treated with 50 mg/kg
  inositol level in sciatic nerves: 1.430 ± 0.104 mg/kg
  glycemia: 3.93 ± 0.82 g/L
[2]; treated with 100 mg/kg D-2 to D+3, 3rd day
  sorbitol level in sciatic nerves: 0.482 ± 0.091 mg/kg
[2]; treated with 100 mg/kg
  inositol level in sciatic nerves: 1.402 ± 0.130 mg/kg
  glycemia: 3.61 ± 0.73 g/L
[1]
  pIC50: 6.60
[3]; mice, orally, in water with 6% gum, up to a dose of 3 g/kg
  mortality: did not cause any mortality

## O=c1c(OC2CCCCC2)c(-c2ccc(O)c(O)c2)oc2cc(O)cc(O)c12 [COR 1983, 3-cyclohexyloxy-5,7-3',4'-tetrahydroxyflavone]
[1]
  pIC50: 5.80
[4]
  reduction in cholesterolemia: 24%
[5]
  mortality: 10%
[3]; mice, orally, in water with 6% gum, dose of 1 g/kg
  mortality: no mortality
[3]; mouse, in vivo
  mortality: did not cause any mortality
